Measured values taken from the NIST ThermoML archive (doi:10.1016/j.jct.2010.10.009).
± gives the expanded uncertainty stated by the source.

Settings: 298.15 K; Crystal; Vacuum Sublimation Drop (Calvet Microcalorimeter)

- molar enthalpy of sublimation: 104 ± 4 kJ/mol
SMILES: c1ccc2c(c1)CCc1ccccc1C2 [1,2:4,5-dibenzocycloheptane]
